Measurements reported in ChEMBL document CHEMBL1909046, “DrugMatrix in vitro pharmacology data”.

Assays:
[1] = target: Platelet-activating factor receptor (Homo sapiens, UniProt P25105); type: tissue-based; also: in other assays of this panel Not Active means under 50% inhibition at 10 µM
[2] = DRUGMATRIX: GABAA, Muscimol, Central radioligand binding (ligand: [3H] Muscimol); type: cell membranes, Rattus norvegicus, Wistar, Brain, Membrane; details: Not Active = under 50% inhibition at 10 µM
[3] = target: Delta-type opioid receptor (Homo sapiens, UniProt P41143); type: cell membranes, Membrane; details: hek293; also: in other assays of this panel Not Active means under 50% inhibition at 10 µM
[4] = DRUGMATRIX: Glutamate, NMDA, Phencyclidine radioligand binding (ligand: [3H] TCP); type: cell membranes, Rattus norvegicus, Wistar, Cerebral cortex, Membrane; details: Not Active = under 50% inhibition at 10 µM
[5] = target: D(1A) dopamine receptor (Homo sapiens, UniProt P21728); assay: DRUGMATRIX: Dopamine D1 radioligand binding (ligand: [3H] SCH-23390); type: cell membranes, CHO, Membrane; details: cho; Not Active = under 50% inhibition at 10 µM
[6] = target: Tyrosine-protein kinase Lck (Homo sapiens, UniProt P06239); assay: DRUGMATRIX: Protein Tyrosine Kinase, LCK enzyme inhibition (substrate: Poly(Glu:Tyr)); type: cell-based, Insect cells; details: insect cells; Not Active = under 50% inhibition at 10 µM
[7] = target: T1, Cysteinyl leukotriene receptor 1 (Homo sapiens, UniProt Q9Y271); type: cell membranes, Membrane; details: cho-k1; also: in other assays of this panel Not Active means under 50% inhibition at 10 µM
T1 sequence (Q9Y271 whole entry): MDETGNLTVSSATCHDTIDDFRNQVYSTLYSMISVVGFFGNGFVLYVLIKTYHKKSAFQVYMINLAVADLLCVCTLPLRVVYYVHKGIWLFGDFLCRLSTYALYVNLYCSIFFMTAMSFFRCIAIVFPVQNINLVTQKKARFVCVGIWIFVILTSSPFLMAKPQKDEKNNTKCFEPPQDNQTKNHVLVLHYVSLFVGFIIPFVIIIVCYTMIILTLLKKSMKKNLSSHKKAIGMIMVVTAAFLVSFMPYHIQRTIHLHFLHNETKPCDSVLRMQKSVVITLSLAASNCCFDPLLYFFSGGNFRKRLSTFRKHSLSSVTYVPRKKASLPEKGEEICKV

Sequence of Delta-type opioid receptor (P41143 whole entry): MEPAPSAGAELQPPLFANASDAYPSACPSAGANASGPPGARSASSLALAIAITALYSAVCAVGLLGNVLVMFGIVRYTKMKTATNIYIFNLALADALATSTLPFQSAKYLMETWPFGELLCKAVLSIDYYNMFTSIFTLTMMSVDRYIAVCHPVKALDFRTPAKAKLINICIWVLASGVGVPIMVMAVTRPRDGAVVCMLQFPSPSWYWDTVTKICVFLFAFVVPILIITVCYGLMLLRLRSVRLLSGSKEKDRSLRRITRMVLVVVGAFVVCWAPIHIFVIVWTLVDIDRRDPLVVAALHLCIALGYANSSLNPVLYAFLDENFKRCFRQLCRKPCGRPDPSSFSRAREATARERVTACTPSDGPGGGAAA
Sequence of D(1A) dopamine receptor (P21728 whole entry): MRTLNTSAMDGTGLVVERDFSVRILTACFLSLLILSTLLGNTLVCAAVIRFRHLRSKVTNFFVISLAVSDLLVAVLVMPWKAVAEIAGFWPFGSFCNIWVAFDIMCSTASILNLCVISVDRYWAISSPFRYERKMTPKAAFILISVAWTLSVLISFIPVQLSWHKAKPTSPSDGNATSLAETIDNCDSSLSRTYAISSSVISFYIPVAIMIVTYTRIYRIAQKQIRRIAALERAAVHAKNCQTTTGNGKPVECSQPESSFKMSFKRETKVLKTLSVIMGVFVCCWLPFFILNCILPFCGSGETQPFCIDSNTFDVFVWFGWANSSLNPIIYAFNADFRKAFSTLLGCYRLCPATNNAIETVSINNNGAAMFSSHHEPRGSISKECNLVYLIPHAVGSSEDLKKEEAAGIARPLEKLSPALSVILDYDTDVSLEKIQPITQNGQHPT
Sequence of Platelet-activating factor receptor (P25105 whole entry): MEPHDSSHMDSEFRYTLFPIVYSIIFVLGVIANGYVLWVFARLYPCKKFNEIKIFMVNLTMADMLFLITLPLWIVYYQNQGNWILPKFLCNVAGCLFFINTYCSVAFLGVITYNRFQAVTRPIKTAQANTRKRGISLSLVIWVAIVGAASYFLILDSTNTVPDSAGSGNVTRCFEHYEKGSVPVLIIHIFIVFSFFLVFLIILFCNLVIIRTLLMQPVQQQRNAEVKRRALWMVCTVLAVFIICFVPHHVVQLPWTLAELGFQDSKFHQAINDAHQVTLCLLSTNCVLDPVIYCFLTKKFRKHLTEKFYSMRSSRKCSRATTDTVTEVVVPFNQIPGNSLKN
Sequence of Tyrosine-protein kinase Lck (P06239 whole entry): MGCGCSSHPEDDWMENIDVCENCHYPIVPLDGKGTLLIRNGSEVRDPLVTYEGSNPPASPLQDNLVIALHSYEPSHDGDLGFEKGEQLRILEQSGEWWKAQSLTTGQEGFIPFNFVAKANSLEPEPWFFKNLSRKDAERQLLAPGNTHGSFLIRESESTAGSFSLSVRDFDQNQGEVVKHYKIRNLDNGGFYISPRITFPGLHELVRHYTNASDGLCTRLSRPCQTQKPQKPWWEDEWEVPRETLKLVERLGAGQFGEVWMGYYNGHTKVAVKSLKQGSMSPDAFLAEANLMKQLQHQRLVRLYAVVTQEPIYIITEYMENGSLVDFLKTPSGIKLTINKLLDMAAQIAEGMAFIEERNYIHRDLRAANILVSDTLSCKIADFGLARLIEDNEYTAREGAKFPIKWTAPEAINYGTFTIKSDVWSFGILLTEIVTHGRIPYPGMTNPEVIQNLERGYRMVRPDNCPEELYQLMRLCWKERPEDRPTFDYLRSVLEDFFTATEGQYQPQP

COc1ccc(CCN(C)CCCC(C#N)(c2ccc(OC)c(OC)c2)C(C)C)cc1OC (stereo not given)
Not Active: IC50 [1] | IC50 [2] | Ki [2] | IC50 [3] | IC50 [4] | Ki [4] | IC50 [5] | IC50 [6] | IC50 [7]

CC(C)Cc1ccc([C@@H](C)C(=O)O)cc1 [(R)-IBUPROPHEN]
Not Active: IC50 [1] | IC50 [2] | Ki [2] | IC50 [3] | IC50 [4] | Ki [4] | IC50 [5] | IC50 [6] | IC50 [7]

CC(C)NCC(O)c1ccc(O)c(O)c1 (stereo not given) [ISOPROTERENOL]
Not Active: IC50 [1] | IC50 [2] | Ki [2] | IC50 [3] | IC50 [4] | Ki [4] | IC50 [5] | IC50 [6] | IC50 [7]

NC(=O)N1C(=O)/C(=C(\O)c2cccs2)c2cc(Cl)ccc21 [TENIDAP]
Not Active: IC50 [1] | IC50 [2] | Ki [2] | IC50 [3] | IC50 [4] | Ki [4] | IC50 [5] | IC50 [6] | IC50 [7]

CCN(CC)CCOc1ccc(/C(=C(/Cl)c2ccccc2)c2ccccc2)cc1 [ENCLOMIPHENE]
Not Active: IC50 [1] | IC50 [3] | IC50 [6] | IC50 [7]

CO[C@@H]1[C@@H](OC)[C@H](C)[C@@](O)(CC(=O)O)O[C@H]1[C@H](C)[C@H]1O[C@@]2(CC[C@@](C)([C@H]3CC[C@@](C)([C@@H]4O[C@@H]([C@H]5O[C@](C)(O)[C@H](C)C[C@@H]5C)C[C@@H]4O[C@@H]4C[C@H](OC)[C@@H](OC)[C@H](C)O4)O3)O2)C[C@H](O)[C@H]1C [MADURAMICIN ACID]
Not Active: IC50 [1] | IC50 [2] | Ki [2] | IC50 [3] | IC50 [4] | Ki [4] | IC50 [6] | IC50 [7]

CN[C@H]1CC[C@@H](c2ccc(Cl)c(Cl)c2)c2ccccc21 [SERTRALINE]
Not Active: IC50 [1] | IC50 [3] | IC50 [6] | IC50 [7]

CN(C)CCOC(c1ccccc1)c1ccccc1 [DIPHENHYDRAMINE]
Not Active: IC50 [1] | IC50 [3] | IC50 [6] | IC50 [7]

Fc1ccc(C(c2ccc(F)cc2)N2CCN(C/C=C/c3ccccc3)CC2)cc1 [FLUNARIZINE]
Not Active: IC50 [1] | IC50 [3] | IC50 [6] | IC50 [7]

CNCCC(Oc1ccc(C(F)(F)F)cc1)c1ccccc1 (stereo not given) [FLUOXETINE]
Not Active: IC50 [1] | IC50 [3] | IC50 [6] | IC50 [7]

Cc1ccc(NC(=O)c2ccc(CN3CCN(C)CC3)cc2)cc1Nc1nccc(-c2cccnc2)n1 [IMATINIB]
Not Active: IC50 [1] | IC50 [3] | IC50 [7]

Clc1ccc(COC(Cn2ccnc2)c2ccc(Cl)cc2Cl)cc1 (stereo not given) [ECONAZOLE]
Not Active: IC50 [1] | IC50 [6] | IC50 [7]
